Assay results taken from patent US20180141962A1, “AZACARBAZOLE BTK INHIBITORS” (MERCK SHARP & DOHME CORP., priority 2015, published 2018).
Where two headings read alike, the source gives them in different places.

Biological target: T1, BTK enzyme (recombinant full-length BTK, hBTK) (Homo sapiens, UniProt Q06187)
T1 construct: recombinant protein from baculovirus-transfected Sf9 cells: full-length BTK, 6HIS-tag cleaved; 6HIS (cleaved yes); made in house; host or cells: baculovirus-transfected Sf9 cells
T1 sequence (Q06187 whole entry): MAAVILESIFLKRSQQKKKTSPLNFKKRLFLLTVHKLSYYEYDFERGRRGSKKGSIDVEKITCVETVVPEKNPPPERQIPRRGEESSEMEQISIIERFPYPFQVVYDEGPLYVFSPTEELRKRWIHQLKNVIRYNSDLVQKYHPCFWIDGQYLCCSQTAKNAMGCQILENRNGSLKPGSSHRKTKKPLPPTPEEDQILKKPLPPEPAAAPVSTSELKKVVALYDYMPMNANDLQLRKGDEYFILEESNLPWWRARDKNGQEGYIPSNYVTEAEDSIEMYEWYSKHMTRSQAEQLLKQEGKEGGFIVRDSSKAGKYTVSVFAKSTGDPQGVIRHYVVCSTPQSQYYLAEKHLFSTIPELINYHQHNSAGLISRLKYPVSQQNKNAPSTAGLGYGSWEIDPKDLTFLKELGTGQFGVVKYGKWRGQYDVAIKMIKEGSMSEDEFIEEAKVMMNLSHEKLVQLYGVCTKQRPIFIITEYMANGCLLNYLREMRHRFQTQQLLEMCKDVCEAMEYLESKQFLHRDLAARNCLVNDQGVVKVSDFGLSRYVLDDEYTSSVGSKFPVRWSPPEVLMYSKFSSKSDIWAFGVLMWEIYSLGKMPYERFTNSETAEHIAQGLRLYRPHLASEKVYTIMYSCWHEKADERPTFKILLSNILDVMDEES
Assay: Btk enzyme activity assay, LANCE TR-FRET
Assay type: biochemical
Details: 50 pM hBTK, 2 μM biotin-A5-peptide, 25 μM ATP, 60 minute compound & enzyme incubation, 120 minutes reaction
Procedure: Btk Enzyme Activity Assay Methods
BTK enzymatic activity was determined with the LANCE (Lanthanide Chelate Excite) TR-FRET (lime-resolved fluorescence resonance energy transfer) assay. […] Phosphorylation reactions were allowed to proceed for 120 minutes. […] After 60 minutes incubation with detection reagents, reaction plates were read on a PerkinElmer EnVision plate reader using standard TR-FRET protocol. Briefly, excitation of donor molecules (Eu-chelate:anti-phospho-antibody) with a laser light source at 337 nm produces energy that can be transferred to Dylight-650 acceptor molecules if this donor:acceptor pair is within close proximity. Fluorescence intensity at both 665 nm (acceptor) and 615 nm (donor) are measured and a TR-FRET ratio calculated for each well (acceptor intensity/donor intensity). IC50 values were determined by 4 parameter robust fit of TR-FRET ratio values vs. (Log10) compound concentrations.

[1] = read-out: BTK binding potency IC50

| SMILES | IC50 [1] | IC50 (BTK binding potency IC50 (nM)) |
| --- | --- | --- |
| CC(=O)N1CCC2(C1)CN(c1ncc(C(N)=O)c3[nH]c4ccccc4c13)C2 [Example 27, 1-(6-acetyl-2,6-diazaspiro[3.4]oct-2-yl)-5H-pyrido[4,3-b]indole-4-carboxamide] | 232 nM | – |
| CC(C)(C)OC(=O)N1CC2(CCCN(c3ncc(C(N)=O)c4[nH]c5ccccc5c34)C2)C1 [Example 28, tert-butyl 6-(4-carbamoyl-5H-pyrido[4,3-b]indol-1-yl)-2,6-diazaspiro[3.5]nonane-2-carboxylate] | 579 nM | – |
| CC(C)(C)c1ccc(N2CCC3(CCCN(c4ncc(C(N)=O)c5[nH]c6ccccc6c45)C3)C2=O)cc1 (centres unmarked) [Example 36, 1-[2-(4-tert-butylphenyl)-1-oxo-2,7-diazaspiro[4.5]dec-7-yl]-5H-pyrido[4,3-b]indole-4-carboxamide] | 9530 nM | – |
| CC(C)(C)c1ccc(N2CCC3(CCCN(c4ncc(C(N)=O)c5[nH]c6ccccc6c45)C3)CC2=O)cc1 (centres unmarked) [Example 38, 1-[9-(4-tert-butylphenyl)-8-oxo-2,9-diazaspiro[5.5]undec-2-yl]-5H-pyrido[4,3-b]indole-4-carboxamide] | 420 nM | – |
| CC(C)(C)OC(=O)N1CCC(c2ccc3c(c2)[nH]c2c(C(N)=O)cnc(N4CCCC5(CCNC5=O)C4)c23)CC1 (centres unmarked) [Example 43, tert-butyl 4-[4-carbamoyl-1-(1-oxo-2,7-diazaspiro[4.5]dec-7-yl)-5H-pyrido[4,3-b]indol-7-yl]piperidine-1-carboxylate] | 7.4 nM | – |
| CC(C)(C)OC(=O)N1CCC(c2ccc3[nH]c4c(C(N)=O)cnc(N5CCCC6(CCNC6=O)C5)c4c3c2)CC1 (centres unmarked) [Example 46, tert-butyl 4-[4-carbamoyl-1-(1-oxo-2,7-diazaspiro[4.5]dec-7-yl)-5H-pyrido[4,3-b]indol-8-yl]piperidine-1-carboxylate] | 377 nM | – |
| CNC(=O)N1CCC(c2ccc3[nH]c4c(C(N)=O)cnc(N5CCCC6(CCNC6=O)C5)c4c3c2)CC1 (centres unmarked) [Example 47, 8-[1-(methylcarbamoyl)piperidin-4-yl]-1-(1-oxo-2,7-diazaspiro[4.5]dec-7-yl)-5H-pyrido[4,3-b]indole-4-carboxamide] | 72.6 nM | – |
| NC(=O)c1cnc(N2CCCC3(CCNC3=O)C2)c2c1[nH]c1ccc(C3CCN(CC(=O)O)CC3)cc12 (centres unmarked) [Example 48, {4-[4-carbamoyl-1-(1-oxo-2,7-diazaspiro[4.5]dec-7-yl)-5H-pyrido[4,3-b]indol-8-yl]piperidin-1-yl}acetic acid] | 47.6 nM | – |
| COC(=O)N1CCC(c2ccc3[nH]c4c(C(N)=O)cnc(N5CCCC6(CCNC6=O)C5)c4c3c2)CC1 (centres unmarked) [Example 51, methyl 4-[4-carbamoyl-1-(1-oxo-2,7-diazaspiro[4.5]dec-7-yl)-5H-pyrido[4,3-b]indol-8-yl]piperidine-1-carboxylate] | 87.9 nM | – |
| CNC(=O)N1CCC(c2ccc3c(c2)[nH]c2c(C(N)=O)cnc(N4CCCC5(CCNC5=O)C4)c23)CC1 (centres unmarked) [Example 53, 7-[1-(methylcarbamoyl)piperidin-4-yl]-1-(1-oxo-2,7-diazaspiro[4.5]dec-7-yl)-5H-pyrido[4,3-b]indole-4-carboxamide] | 1.4 nM | – |
| CC(C)(O)CN1CCC(c2ccc3c(c2)[nH]c2c(C(N)=O)cnc(N4CCCC5(CCNC5=O)C4)c23)CC1 (centres unmarked) [Example 54, 7-[1-(2-hydroxy-2-methylpropyl)piperidin-4-yl]-1-(1-oxo-2,7-diazaspiro[4.5]dec-7-yl)-5H-pyrido[4,3-b]indole-4-carboxamide] | 1.2 nM | – |
| COC(=O)N1CCC(c2ccc3c(c2)[nH]c2c(C(N)=O)cnc(N4CCCC5(CCNC5=O)C4)c23)CC1 (centres unmarked) [Example 56, methyl 4-[4-carbamoyl-1-(1-oxo-2,7-diazaspiro[4.5]dec-7-yl)-5H-pyrido[4,3-b]indol-7-yl]piperidine-1-carboxylate] | 3 nM | – |
| NC(=O)c1cnc(N2CCCC3(CCNC3=O)C2)c2c1[nH]c1cc(C3CCN(CC(=O)O)CC3)ccc12 (centres unmarked) [Example 59, {4-[4-carbamoyl-1-(1-oxo-2,7-diazaspiro[4.5]dec-7-yl)-5H-pyrido[4,3-b]indol-7-yl]piperidin-1-yl}acetic acid] | 1.6 nM | – |

Results, then the compound that gave them:

| IC50 [1] | IC50 (BTK binding potency IC50 (nM)) | SMILES |
| --- | --- | --- |
| 160 nM | – | NC(=O)c1cnc(N2CC3(CCNC3)C2)c2c1[nH]c1ccccc12 [Example 26, 1-(2,6-diazaspiro[3.4]oct-2-yl)-5H-pyrido[4,3-b]indole-4-carboxamide] |
| 271 nM | – | CC(=O)N1CC2(CCCN(c3ncc(C(N)=O)c4[nH]c5ccccc5c34)C2)C1 [Example 29, 1-(2-acetyl-2,6-diazaspiro[3.5]non-6-yl)-5H-pyrido[4,3-b]indole-4-carboxamide] |
| 28 nM | – | NC(=O)c1cnc(N2CCCC3(CCCNC3=O)C2)c2c1[nH]c1ccccc12 (centres unmarked) [Example 30, 1-(7-oxo-2,8-diazaspiro[5.5]undec-2-yl)-5H-pyrido[4,3-b]indole-4-carboxamide] |
| 96.8 nM | – | COC(=O)CCN1CCCC2(CCCN(c3ncc(C(N)=O)c4[nH]c5ccccc5c34)C2)C1=O (centres unmarked) [Example 31, methyl 3-[8-(4-carbamoyl-5H-pyrido[4,3-b]indol-1-yl)-1-oxo-2,8-diazaspiro[5.5]undec-2-yl]propanoate] |
| 244 nM | – | NC(=O)c1cnc(N2CCCC3(CCN(c4ccc(F)cc4)C3=O)C2)c2c1[nH]c1ccccc12 (centres unmarked) [Example 32, 1-[2-(4-fluorophenyl)-1-oxo-2,7-diazaspiro[4.5]dec-7-yl]-5H-pyrido[4,3-b]indole-4-carboxamide] |
| 212 nM | – | NC(=O)c1cnc(N2CCC3(CCCN(c4ccc(F)cc4)C3=O)C2)c2c1[nH]c1ccccc12 (centres unmarked) [Example 33, 1-[7-(4-fluorophenyl)-6-oxo-2,7-diazaspiro[4.5]dec-2-yl]-5H-pyrido[4,3-b]indole-4-carboxamide] |
| – | 17.2 nM | NC(=O)c1cnc(N2CCCC3(CCNC3=O)C2)c2c1[nH]c1ccccc12 (centres unmarked) [Example 34, 1-(1-oxo-2,7-diazaspiro[4.5]dec-7-yl)-5H-pyrido[4,3-b]indole-4-carboxamide] |
| 55.2 nM | – | CN1CCCC2(CCCN(c3ncc(C(N)=O)c4[nH]c5ccccc5c34)C2)C1=O (centres unmarked) [Example 35, 1-(8-methyl-7-oxo-2,8-diazaspiro[5.5]undec-2-yl)-5H-pyrido[4,3-b]indole-4-carboxamide] |
| 46.4 nM | – | NC(=O)c1cnc(N2CCCC3(CCNC(=O)C3)C2)c2c1[nH]c1ccccc12 (centres unmarked) [Example 37, 1-(8-oxo-2,9-diazaspiro[5.5]undec-2-yl)-5H-pyrido[4,3-b]indole-4-carboxamide] |
| 120 nM | – | CC(C)N1CCCC2(CCCN(c3ncc(C(N)=O)c4[nH]c5ccccc5c34)C2)C1=O (centres unmarked) [Example 39, 1-[8-(1-methylethyl)-7-oxo-2,8-diazaspiro[5.5]undec-2-yl]-5H-pyrido[4,3-b]indole-4-carboxamide] |
| 1.4 nM | – | NC(=O)c1cnc(N2CCCC3(CCNC3=O)C2)c2c1[nH]c1cc(C3CCNCC3)ccc12 (centres unmarked) [Example 42, 1-(1-oxo-2,7-diazaspiro[4.5]decan-7-yl)-7-(piperidin-4-yl)-5H-pyrido[4,3-b]indole-4-carboxamide] |
| 1.6 nM | – | NC(=O)c1cnc(N2CCCC3(CCNC3=O)C2)c2c1[nH]c1cc(C3CCCNC3)ccc12 (centres unmarked) [Example 44, 1-(1-oxo-2,7-diazaspiro[4.5]dec-7-yl)-7-piperidin-3-yl-5H-pyrido[4,3-b]indole-4-carboxamide] |
| 204 nM | – | NC(=O)c1cnc(N2CCCC3(CCNC3=O)C2)c2c1[nH]c1ccc(C3CCNCC3)cc12 (centres unmarked) [Example 45, 1-(1-oxo-2,7-diazaspiro[4.5]dec-7-yl)-8-piperidin-4-yl-5H-pyrido[4,3-b]indole-4-carboxamide] |
| 87.3 nM | – | CCN1CCC(c2ccc3[nH]c4c(C(N)=O)cnc(N5CCCC6(CCNC6=O)C5)c4c3c2)CC1 (centres unmarked) [Example 49, 8-(1-ethylpiperidin-4-yl)-1-(1-oxo-2,7-diazaspiro[4.5]dec-7-yl)-5H-pyrido[4,3-b]indole-4-carboxamide] |
| 58.7 nM | – | CC(C)N1CCC(c2ccc3[nH]c4c(C(N)=O)cnc(N5CCCC6(CCNC6=O)C5)c4c3c2)CC1 (centres unmarked) [Example 50, 8-[1-(1-methylethyl)piperidin-4-yl]-1-(1-oxo-2,7-diazaspiro[4.5]dec-7-yl)-5H-pyrido[4,3-b]indole-4-carboxamide] |
| 0.96 nM | – | CC(C)N1CCC(c2ccc3c(c2)[nH]c2c(C(N)=O)cnc(N4CCCC5(CCNC5=O)C4)c23)CC1 (centres unmarked) [Example 52, 7-[1-(1-methylethyl)piperidin-4-yl]-1-(1-oxo-2,7-diazaspiro[4.5]dec-7-yl)-5H-pyrido[4,3-b]indole-4-carboxamide] |
| 1.3 nM | – | CN1CCC(c2ccc3c(c2)[nH]c2c(C(N)=O)cnc(N4CCCC5(CCNC5=O)C4)c23)CC1 (centres unmarked) [Example 55, 7-(1-methylpiperidin-4-yl)-1-(1-oxo-2,7-diazaspiro[4.5]dec-7-yl)-5H-pyrido[4,3-b]indole-4-carboxamide] |
| 2.1 nM | – | CS(=O)(=O)N1CCC(c2ccc3c(c2)[nH]c2c(C(N)=O)cnc(N4CCCC5(CCNC5=O)C4)c23)CC1 (centres unmarked) [Example 57, 7-[1-(methylsulfonyl)piperidin-4-yl]-1-(1-oxo-2,7-diazaspiro[4.5]dec-7-yl)-5H-pyrido[4,3-b]indole-4-carboxamide] |
| 1.4 nM | – | CC(=O)N1CCC(c2ccc3c(c2)[nH]c2c(C(N)=O)cnc(N4CCCC5(CCNC5=O)C4)c23)CC1 (centres unmarked) [Example 58, 7-(1-acetylpiperidin-4-yl)-1-(1-oxo-2,7-diazaspiro[4.5]dec-7-yl)-5H-pyrido[4,3-b]indole-4-carboxamide] |
